Measurements as given in ChEMBL document CHEMBL1641470, “New azoles with antifungal activity: Design, synthesis, and molecular docking” (2011).
Converted amounts (≈) assume the structure as drawn.

Columns and labels:
Format in all cases: functional
Candida albicans = assay: Antifungal activity against Candida albicans ATCC Y0109 after 24 hrs by broth microdilution method
Cryptococcus neoformans = assay: Antifungal activity against Cryptococcus neoformans ATCC BLS108 after 72 hrs by broth microdilution method
Candida parapsilosis = assay: Antifungal activity against Candida parapsilosis by broth microdilution method; details: Lodderomyces parapsilosis
Candida tropicalis = assay: Antifungal activity against Candida tropicalis by broth microdilution method
Trichophyton rubrum = assay: Antifungal activity against Trichophyton rubrum by broth microdilution method
Fusarium = assay: Antifungal activity against Fusarium by broth microdilution method
Nannizzia gypsea = assay: Antifungal activity against Microsporum gypseum by broth microdilution method
Aspergillus fumigatus = assay: Antifungal activity against Aspergillus fumigatus by broth microdilution method

MIC80 (Candida albicans) [µg/mL] | MIC80 (Cryptococcus neoformans) [µg/mL] | MIC80 (Candida parapsilosis) [µg/mL] | MIC80 (Candida tropicalis) [µg/mL] | MIC80 (Trichophyton rubrum) [µg/mL] | MIC80 (Fusarium) [µg/mL] | MIC80 (Nannizzia gypsea) [µg/mL] | MIC80 (Aspergillus fumigatus) [µg/mL] | Structure (SMILES)
0.0156 (≈ 0.0286 µM) | 0.25 (≈ 0.459 µM) | 0.0625 (≈ 0.115 µM) | 0.0625 (≈ 0.115 µM) | 0.0039 (≈ 0.00716 µM) | 0.0625 (≈ 0.115 µM) | 0.25 (≈ 0.459 µM) | 16 (≈ 29.4 µM) | O=C(/C=C/c1ccccc1)Nc1ccc(N2CCN(CC(O)(Cn3cncn3)c3ccc(F)cc3F)CC2)cc1 (stereo not drawn)
0.0039 (≈ 0.00693 µM) | 0.0625 (≈ 0.111 µM) | 0.0625 (≈ 0.111 µM) | 0.0156 (≈ 0.0277 µM) | 0.25 (≈ 0.444 µM) | 1 (≈ 1.78 µM) | 0.0625 (≈ 0.111 µM) | > 64 | O=C(/C=C/c1ccccc1F)Nc1ccc(N2CCN(CC(O)(Cn3cncn3)c3ccc(F)cc3F)CC2)cc1 (stereo not drawn)
0.0156 (≈ 0.0277 µM) | 0.25 (≈ 0.444 µM) | 0.25 (≈ 0.444 µM) | 0.25 (≈ 0.444 µM) | 0.25 (≈ 0.444 µM) | 1 (≈ 1.78 µM) | 0.0156 (≈ 0.0277 µM) | 4 (≈ 7.11 µM) | O=C(/C=C/c1cccc(F)c1)Nc1ccc(N2CCN(CC(O)(Cn3cncn3)c3ccc(F)cc3F)CC2)cc1 (stereo not drawn)
0.0625 (≈ 0.111 µM) | 0.25 (≈ 0.444 µM) | 0.25 (≈ 0.444 µM) | 0.25 (≈ 0.444 µM) | 0.0039 (≈ 0.00693 µM) | 1 (≈ 1.78 µM) | 0.0625 (≈ 0.111 µM) | 0.0625 (≈ 0.111 µM) | O=C(/C=C/c1ccc(F)cc1)Nc1ccc(N2CCN(CC(O)(Cn3cncn3)c3ccc(F)cc3F)CC2)cc1 (stereo not drawn)
0.0039 (≈ 0.00674 µM) | 0.25 (≈ 0.432 µM) | 0.25 (≈ 0.432 µM) | 0.0625 (≈ 0.108 µM) | 0.0156 (≈ 0.0269 µM) | 1 (≈ 1.73 µM) | 0.0156 (≈ 0.0269 µM) | 4 (≈ 6.91 µM) | O=C(/C=C/c1ccccc1Cl)Nc1ccc(N2CCN(CC(O)(Cn3cncn3)c3ccc(F)cc3F)CC2)cc1 (stereo not drawn)
0.0625 (≈ 0.108 µM) | 1 (≈ 1.73 µM) | 1 (≈ 1.73 µM) | 0.25 (≈ 0.432 µM) | 1 (≈ 1.73 µM) | 64 (≈ 111 µM) | 0.0156 (≈ 0.0269 µM) | 64 (≈ 111 µM) | O=C(/C=C/c1cccc(Cl)c1)Nc1ccc(N2CCN(CC(O)(Cn3cncn3)c3ccc(F)cc3F)CC2)cc1 (stereo not drawn)
0.0625 (≈ 0.108 µM) | 1 (≈ 1.73 µM) | 0.25 (≈ 0.432 µM) | 0.25 (≈ 0.432 µM) | 0.25 (≈ 0.432 µM) | 4 (≈ 6.91 µM) | 0.25 (≈ 0.432 µM) | 64 (≈ 111 µM) | O=C(/C=C/c1ccc(Cl)cc1)Nc1ccc(N2CCN(CC(O)(Cn3cncn3)c3ccc(F)cc3F)CC2)cc1 (stereo not drawn)
0.0156 (≈ 0.0254 µM) | 0.25 (≈ 0.408 µM) | 0.0625 (≈ 0.102 µM) | 0.0625 (≈ 0.102 µM) | 0.0156 (≈ 0.0254 µM) | 0.25 (≈ 0.408 µM) | 0.25 (≈ 0.408 µM) | 4 (≈ 6.52 µM) | O=C(/C=C/c1ccc(Cl)c(Cl)c1)Nc1ccc(N2CCN(CC(O)(Cn3cncn3)c3ccc(F)cc3F)CC2)cc1 (stereo not drawn)
0.0625 (≈ 0.1 µM) | 1 (≈ 1.6 µM) | 0.25 (≈ 0.401 µM) | 0.25 (≈ 0.401 µM) | 0.0625 (≈ 0.1 µM) | 1 (≈ 1.6 µM) | 1 (≈ 1.6 µM) | 16 (≈ 25.7 µM) | O=C(/C=C/c1cccc(Br)c1)Nc1ccc(N2CCN(CC(O)(Cn3cncn3)c3ccc(F)cc3F)CC2)cc1 (stereo not drawn)
0.0625 (≈ 0.1 µM) | 0.25 (≈ 0.401 µM) | 0.25 (≈ 0.401 µM) | 0.25 (≈ 0.401 µM) | 0.0156 (≈ 0.025 µM) | 1 (≈ 1.6 µM) | 0.25 (≈ 0.401 µM) | 4 (≈ 6.42 µM) | O=C(/C=C/c1ccc(Br)cc1)Nc1ccc(N2CCN(CC(O)(Cn3cncn3)c3ccc(F)cc3F)CC2)cc1 (stereo not drawn)
0.0625 (≈ 0.112 µM) | 1 (≈ 1.79 µM) | 0.25 (≈ 0.448 µM) | 0.25 (≈ 0.448 µM) | 0.0156 (≈ 0.0279 µM) | 16 (≈ 28.6 µM) | 0.25 (≈ 0.448 µM) | 64 (≈ 115 µM) | Cc1ccc(/C=C/C(=O)Nc2ccc(N3CCN(CC(O)(Cn4cncn4)c4ccc(F)cc4F)CC3)cc2)cc1 (stereo not drawn)
0.0156 (≈ 0.0258 µM) | 0.25 (≈ 0.413 µM) | 0.0625 (≈ 0.103 µM) | 0.0625 (≈ 0.103 µM) | 0.25 (≈ 0.413 µM) | 1 (≈ 1.65 µM) | 0.25 (≈ 0.413 µM) | 4 (≈ 6.62 µM) | COc1ccc(/C=C/C(=O)Nc2ccc(N3CCN(CC(O)(Cn4cncn4)c4ccc(F)cc4F)CC3)cc2)cc1OC (stereo not drawn)
0.0156 (≈ 0.0258 µM) | 0.25 (≈ 0.413 µM) | 0.25 (≈ 0.413 µM) | 0.0625 (≈ 0.103 µM) | 0.25 (≈ 0.413 µM) | 4 (≈ 6.62 µM) | 1 (≈ 1.65 µM) | > 64 | COc1ccc(OC)c(/C=C/C(=O)Nc2ccc(N3CCN(CC(O)(Cn4cncn4)c4ccc(F)cc4F)CC3)cc2)c1 (stereo not drawn)
0.0156 (≈ 0.0265 µM) | 1 (≈ 1.7 µM) | 0.25 (≈ 0.424 µM) | 0.0625 (≈ 0.106 µM) | 0.0625 (≈ 0.106 µM) | 4 (≈ 6.78 µM) | 0.25 (≈ 0.424 µM) | > 64 | O=C(/C=C/c1ccccc1[N+](=O)[O-])Nc1ccc(N2CCN(CC(O)(Cn3cncn3)c3ccc(F)cc3F)CC2)cc1 (stereo not drawn)
0.0156 (≈ 0.0265 µM) | 0.25 (≈ 0.424 µM) | 0.0625 (≈ 0.106 µM) | 0.25 (≈ 0.424 µM) | 0.0625 (≈ 0.106 µM) | 1 (≈ 1.7 µM) | 0.25 (≈ 0.424 µM) | 4 (≈ 6.78 µM) | O=C(/C=C/c1cccc([N+](=O)[O-])c1)Nc1ccc(N2CCN(CC(O)(Cn3cncn3)c3ccc(F)cc3F)CC2)cc1 (stereo not drawn)
0.0625 (≈ 0.106 µM) | 1 (≈ 1.7 µM) | 1 (≈ 1.7 µM) | 0.25 (≈ 0.424 µM) | 0.0156 (≈ 0.0265 µM) | 16 (≈ 27.1 µM) | 0.0625 (≈ 0.106 µM) | 4 (≈ 6.78 µM) | O=C(/C=C/c1ccc([N+](=O)[O-])cc1)Nc1ccc(N2CCN(CC(O)(Cn3cncn3)c3ccc(F)cc3F)CC2)cc1 (stereo not drawn)
